According to patent US9745283B2, “Uracil derivatives as AXL and c-MET kinase inhibitors” (priority 2011, dated 2017):

Target: recombinant human baculovirus-expressed cMET (Homo sapiens (Human), UniProt P08581)
Test: C-MET Kinase Assay (HTRF KinEASE)
Assay type: biochemical
Settings: average of two or more determinations; read-out: c-MET IC50
Protocol: The cMET kinase assay was performed in 384-well Fluotrac™ 200 HiBase microplates using the HTRF KinEASE™ assay described above for AXL except that the assay volume was reduced to half. Enzyme concentration was 8 ng/mL of recombinant human baculovirus-expressed cMET while the substrate concentrations were 0.1 μM and 0.02 μM for the biotinylated peptide and ATP, respectively. Instead of the Multidrop Combi, the BioRAPTR® FRD microfluidic workstation (Beckman Coulter, Brea, Calif.) was utilized for reagent additions.
Inhibition curves for compounds were generated by plotting percent control activity versus log 10 of the concentration of compound. IC50 values were calculated by nonlinear regression using the sigmoidal dose-response (variable slope) equation in GraphPad Prism as follows: y=bottom+(top−bottom)/(1+10(log IC50−x)*Hill Slope) where y is the % kinase activity at a given concentration of compound, x is the logarithm of the concentration of compound, bottom is the % of control kinase activity at the highest compound concentration tested, and top is the % of control kinase activity at the lowest compound concentration examined. The values for bottom and top were fixed at 0 and 100, respectively.

IC50 | Compound
10 to 100 nM | COc1cc2nccc(Oc3ccc(NC(=O)c4nn(C)c(=O)[nH]c4=O)cc3F)c2cc1OC [Example 114, 2-Methyl-3,5-dioxo-2,3,4,5-tetrahydro-[1,2,4]triazine-6-carboxylic acid [4-(6,7-dimethoxy-quinolin-4-yloxy)-3-fluoro-phenyl]-amide]
10 to 100 nM | COc1cc2nccc(Oc3ccc(NC(=O)c4nn(C)c(=O)n(Cc5cc(C)on5)c4=O)cc3F)c2cc1OC [Example 116, 2-Methyl-4-(5-methyl-isoxazol-3-ylmethyl)-3,5-dioxo-2,3,4,5-tetrahydro-[1,2,4]triazine-6-carboxylic acid [4-(6,7-dimethoxy-quinolin-4-yloxy)-3-fluoro-phenyl]-amide]
101 to 1000 nM | CCC#CCn1c(=O)c(C(=O)Nc2ccc(Oc3ccnc4cc(OC)c(OC)cc34)c(F)c2)nn(C)c1=O [Example 117, 2-Methyl-3,5-dioxo-4-pent-2-ynyl-2,3,4,5-tetrahydro-[1,2,4]triazine-6-carboxylic acid [4-(6,7-dimethoxy-uinolin-4-yloxy)-3-fluoro-phenyl]-amide]
101 to 1000 nM | COc1cc2nccc(Oc3ccc(NC(=O)c4nn(C)c(=O)n(CC#CCO)c4=O)cc3F)c2cc1OC [Example 118, 4-(4-Hydroxy-but-2-ynyl)-2-methyl-3,5-dioxo-2,3,4,5-tetrahydro-[1,2,4]triazine-6-carboxylic acid [4-(6,7-dimethoxy-quinolin-4-yloxy)-3-fluoro-phenyl]-amide]
10 to 100 nM | COc1cc2nccc(Oc3ccc(NC(=O)c4nn(C)c(=O)n(CCn5cccn5)c4=O)cc3F)c2cc1OC [Example 120, 2-Methyl-3,5-dioxo-4-(2-pyrazol-1-yl-ethyl)-2,3,4,5-tetrahydro-[1,2,4]triazine-6-carboxylic acid [4-(6,7-dimethoxyquinolin-4-yloxy)-3-fluorophenyl]-amide]
101 to 1000 nM | CCn1c(=O)c(C(=O)Nc2ccc(Oc3ccnc4cc(OC)c(OC)cc34)c(F)c2)nn(C)c1=O [Example 123, 4-Ethyl-2-methyl-3,5-dioxo-2,3,4,5-tetrahydro-[1,2,4]triazine-6-carboxylic acid [4-(6,7-dimethoxyquinolin-4-yloxy)-3-fluoro-phenyl]-amide]
10 to 100 nM | C=CCn1c(=O)c(C(=O)Nc2ccc(Oc3ccnc4cc(OC)c(OC)cc34)c(F)c2)nn(C)c1=O [Example 124, 4-Allyl-2-methyl-3,5-dioxo-2,3,4,5-tetrahydro-[1,2,4]triazine-6-carboxylic acid [4-(6,7-dimethoxy-quinolin-4-yloxy)-3-fluoro-phenyl]-amide]
10 to 100 nM | COc1cc2nccc(Oc3ccc(NC(=O)c4nn(CC5CC5)c(=O)n(-c5ccc(F)cc5)c4=O)cc3F)c2cc1OC [Example 133, 2-Cyclopropylmethyl-4-(4-fluorophenyl)-3,5-dioxo-2,3,4,5-tetrahydro-[1,2,4]triazine-6-carboxylic acid [4-(6,7-dimethoxy-quinolin-4-yloxy)-3-fluoro-phenyl]-amide]
101 to 1000 nM | CCn1cc(C(=O)Nc2ccc(Nc3ccnc4cc(OC)c(OC)cc34)cc2)c(=O)n(-c2ccc(F)cc2)c1=O [Example 134, 1-Ethyl-3-(4-fluoro-phenyl)-2,4-dioxo-1,2,3,4-tetrahydro-pyrimidine-5-carboxylic acid [4-(6,7-dimethoxy-quinolin-4-ylamino)-phenyl]-amide]
101 to 1000 nM | COc1cc2nccc(Nc3ccc(NC(=O)c4cn(C(C)C)c(=O)n(-c5ccc(F)cc5)c4=O)cc3)c2cc1OC [Example 135, 3-(4-Fluorophenyl)-1-isopropyl-2,4-dioxo-1,2,3,4-tetrahydropyrimidine-5-carboxylic acid [4-(6,7-dimethoxyquinolin-4-ylamino)-phenyl]-amide]
101 to 1000 nM | COc1cc2nccc(Nc3ccc(NC(=O)c4nn(C(C)C)c(=O)n(-c5ccc(F)cc5)c4=O)cc3)c2cc1OC [Example 136, 4-(4-Fluoro-phenyl)-2-isopropyl-3,5-dioxo-2,3,4,5-tetrahydro-[1,2,4]triazine-6-carboxylic acid [4-(6,7-dimethoxy-quinolin-4-ylamino)-phenyl]-amide]
10 to 100 nM | CCn1cc(C(=O)Nc2ccc(Sc3ccnc4cc(OC)c(OC)cc34)cc2)c(=O)n(-c2ccc(F)cc2)c1=O [Example 137, 1-Ethyl-3-(4-fluorophenyl)-2,4-dioxo-1,2,3,4-tetrahydro-pyrimidine-5-carboxylic acid [4-(6,7-dimethoxy-quinolin-4-ylsulfanyl)-phenyl]-amide]
10 to 100 nM | COc1cc2nccc(Sc3ccc(NC(=O)c4cn(C(C)C)c(=O)n(-c5ccc(F)cc5)c4=O)cc3)c2cc1OC [Example 138, 3-(4-Fluoro-phenyl)-1-isopropyl-2,4-dioxo-1,2,3,4-tetrahydro-pyrimidine-5-carboxylic acid [4-(6,7-dimethoxy-quinolin-4-ylsulfanyl)-phenyl]-amide]
10 to 100 nM | COc1cc2ncnc(Oc3ccc(NC(=O)c4cn(C(C)C)c(=O)n(-c5ccc(F)cc5)c4=O)cc3)c2cc1OC [Example 141, 3-(4-Fluoro-phenyl)-1-isopropyl-2,4-dioxo-1,2,3,4-tetrahydro-pyrimidine-5-carboxylic acid [4-(6,7-dimethoxy-quinazolin-4-yloxy)-phenyl]-amide]
10 to 100 nM | CCn1cc(C(=O)Nc2ccc(Oc3ncnc4cc(OC)c(OC)cc34)cc2)c(=O)n(-c2ccc(F)cc2)c1=O [Example 142, 1-Ethyl-3-(4-fluorophenyl)-2,4-dioxo-1,2,3,4-tetrahydro-pyrimidine-5-carboxylic acid [4-(6,7-dimethoxy-quinazolin-4-yloxy)-phenyl]-amide]
10 to 100 nM | CCn1cc(C(=O)Nc2ccc(Oc3ccnc4cc(OC)c(OC)cc34)c(C)c2)c(=O)n(-c2ccc(F)cc2)c1=O [Example 148, 1-Ethyl-3-(4-fluoro-phenyl)-2,4-dioxo-1,2,3,4-tetrahydro-pyrimidine-5-carboxylic acid [4-(6,7-dimethoxy-quinolin-4-yloxy)-3-methyl-phenyl]-amide]
10 to 100 nM | CCn1cc(C(=O)Nc2ccc(Oc3ccnc4cc(OC)c(OC)cc34)c(Cl)c2)c(=O)n(-c2ccc(F)cc2)c1=O [Example 152]
101 to 1000 nM | COc1cc2nccc(Oc3ccc(NC(=O)c4cn(C(C)C)c(=O)n(-c5ccc(F)cc5)c4=O)c(N(C)C)c3)c2cc1OC [Example 154, 3-(4-Fluoro-phenyl)-1-isopropyl-2,4-dioxo-1,2,3,4-tetrahydro-pyrimidine-5-carboxylic acid [4-(6,7-dimethoxy-quinolin-4-yloxy)-2-dimethylamino-phenyl]-amide]
10 to 100 nM | CCn1cc(C(=O)Nc2ccc(Oc3ccnc4cc(OC)c(OC)cc34)c(C(C)C)c2)c(=O)n(-c2ccc(F)cc2)c1=O [Example 155, 1-Ethyl-3-(4-fluoro-phenyl)-2,4-dioxo-1,2,3,4-tetrahydro-pyrimidine-5-carboxylic acid [4-(6,7-dimethoxy-quinolin-4-yloxy)-3-isopropyl-phenyl]-amide]
10 to 100 nM | COc1cc2nccc(Oc3ccc(NC(=O)c4cn(C(C)C)c(=O)n(-c5ccc(F)cc5)c4=O)cc3C(C)C)c2cc1OC [Example 156, 3-(4-Fluoro-phenyl)-1-isopropyl-2,4-dioxo-1,2,3,4-tetrahydro-pyrimidine-5-carboxylic acid [4-(6,7-dimethoxy-quinolin-4-yloxy)-3-isopropyl-phenyl]-amide]
